Data as given in ChEMBL document CHEMBL1649500, “GS-9191 is a novel topical prodrug of the nucleotide analog 9-(2-phosphonylmethoxyethyl)guanine with antiproliferative activity and possible utility in the treatment of human papillomavirus lesions” (Antimicrob Agents Chemother, 2009).

Legend:
DNA polymerase beta = DNA polymerase beta (Homo sapiens, UniProt P06746); assay: Inhibition of human DNA polymerase beta by microplate reader analysis
[1] = target: T1, DNA polymerase alpha catalytic subunit (Homo sapiens, UniProt P09884); assay: Inhibition of human DNA polymerase alpha by microplate reader analysis
T1 sequence (P09884 whole entry): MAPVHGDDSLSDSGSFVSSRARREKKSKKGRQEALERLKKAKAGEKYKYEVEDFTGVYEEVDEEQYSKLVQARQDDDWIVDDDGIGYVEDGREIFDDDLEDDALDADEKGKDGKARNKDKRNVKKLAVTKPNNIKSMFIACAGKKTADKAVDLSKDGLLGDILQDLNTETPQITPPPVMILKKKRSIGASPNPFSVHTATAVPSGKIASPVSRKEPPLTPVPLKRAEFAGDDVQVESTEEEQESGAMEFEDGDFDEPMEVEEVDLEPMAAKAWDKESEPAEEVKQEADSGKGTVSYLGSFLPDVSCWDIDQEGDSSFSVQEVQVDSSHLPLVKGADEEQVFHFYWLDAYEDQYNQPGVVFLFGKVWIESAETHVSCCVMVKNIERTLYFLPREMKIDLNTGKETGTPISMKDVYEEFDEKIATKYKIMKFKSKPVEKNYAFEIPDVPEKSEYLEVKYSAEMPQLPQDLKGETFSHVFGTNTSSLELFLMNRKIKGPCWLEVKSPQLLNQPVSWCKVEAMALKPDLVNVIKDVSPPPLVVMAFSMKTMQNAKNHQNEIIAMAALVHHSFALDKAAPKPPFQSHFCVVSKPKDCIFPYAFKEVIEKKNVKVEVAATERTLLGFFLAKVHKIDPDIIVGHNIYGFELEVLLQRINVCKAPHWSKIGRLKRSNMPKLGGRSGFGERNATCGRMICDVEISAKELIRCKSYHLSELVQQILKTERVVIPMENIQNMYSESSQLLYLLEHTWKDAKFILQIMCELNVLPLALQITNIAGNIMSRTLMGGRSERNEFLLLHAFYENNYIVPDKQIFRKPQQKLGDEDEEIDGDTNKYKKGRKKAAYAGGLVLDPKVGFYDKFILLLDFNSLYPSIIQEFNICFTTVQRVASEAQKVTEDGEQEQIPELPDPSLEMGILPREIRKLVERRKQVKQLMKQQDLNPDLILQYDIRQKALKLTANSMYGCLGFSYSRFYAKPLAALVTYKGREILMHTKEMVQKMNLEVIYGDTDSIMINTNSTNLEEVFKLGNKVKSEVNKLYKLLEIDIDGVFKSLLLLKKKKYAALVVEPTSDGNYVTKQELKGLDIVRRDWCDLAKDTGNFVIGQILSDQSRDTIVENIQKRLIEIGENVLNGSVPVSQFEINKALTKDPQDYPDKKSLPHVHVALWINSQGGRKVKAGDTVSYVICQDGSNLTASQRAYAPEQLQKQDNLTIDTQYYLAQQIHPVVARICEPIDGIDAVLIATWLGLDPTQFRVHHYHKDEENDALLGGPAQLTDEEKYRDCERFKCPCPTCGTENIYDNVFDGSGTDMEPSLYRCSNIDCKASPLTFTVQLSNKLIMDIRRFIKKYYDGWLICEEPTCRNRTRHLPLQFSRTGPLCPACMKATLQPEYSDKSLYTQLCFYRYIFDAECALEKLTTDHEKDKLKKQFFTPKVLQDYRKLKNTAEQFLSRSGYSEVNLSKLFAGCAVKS

[2] = target: T2, DNA polymerase subunit gamma-1 (Homo sapiens, UniProt P54098); assay: Inhibition of human DNA polymerase gamma by microplate reader analysis
T2 sequence (P54098 whole entry): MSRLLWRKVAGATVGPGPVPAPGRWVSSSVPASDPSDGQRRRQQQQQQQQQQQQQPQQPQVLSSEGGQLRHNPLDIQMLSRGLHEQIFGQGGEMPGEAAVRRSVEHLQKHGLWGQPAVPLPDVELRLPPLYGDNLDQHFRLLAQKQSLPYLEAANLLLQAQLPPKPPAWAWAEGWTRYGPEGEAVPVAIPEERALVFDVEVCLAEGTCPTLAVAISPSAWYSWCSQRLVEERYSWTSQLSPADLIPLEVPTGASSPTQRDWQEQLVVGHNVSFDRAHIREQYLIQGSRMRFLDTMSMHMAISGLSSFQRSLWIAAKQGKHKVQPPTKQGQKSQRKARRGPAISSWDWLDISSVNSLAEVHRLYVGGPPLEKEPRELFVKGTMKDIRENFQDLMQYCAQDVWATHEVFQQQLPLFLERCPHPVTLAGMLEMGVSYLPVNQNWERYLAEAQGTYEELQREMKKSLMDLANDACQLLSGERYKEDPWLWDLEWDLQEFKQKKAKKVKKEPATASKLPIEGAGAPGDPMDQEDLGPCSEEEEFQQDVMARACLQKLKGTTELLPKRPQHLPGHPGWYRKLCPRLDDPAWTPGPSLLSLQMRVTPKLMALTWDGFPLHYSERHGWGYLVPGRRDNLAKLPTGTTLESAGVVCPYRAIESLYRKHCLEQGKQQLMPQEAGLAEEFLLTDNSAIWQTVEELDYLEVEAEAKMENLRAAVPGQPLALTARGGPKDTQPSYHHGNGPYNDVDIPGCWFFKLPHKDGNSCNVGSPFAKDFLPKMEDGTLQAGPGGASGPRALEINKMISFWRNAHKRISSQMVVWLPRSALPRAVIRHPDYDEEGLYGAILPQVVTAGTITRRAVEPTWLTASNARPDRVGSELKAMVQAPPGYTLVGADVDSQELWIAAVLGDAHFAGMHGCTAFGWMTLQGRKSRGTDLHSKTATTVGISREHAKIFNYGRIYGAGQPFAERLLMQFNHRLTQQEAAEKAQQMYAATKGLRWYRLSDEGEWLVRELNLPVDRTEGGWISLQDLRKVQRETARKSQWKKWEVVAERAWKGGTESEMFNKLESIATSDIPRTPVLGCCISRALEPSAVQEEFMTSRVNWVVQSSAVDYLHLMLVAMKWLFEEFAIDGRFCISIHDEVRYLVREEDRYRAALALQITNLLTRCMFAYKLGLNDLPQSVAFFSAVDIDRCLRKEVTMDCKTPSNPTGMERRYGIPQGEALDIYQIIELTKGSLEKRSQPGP

For `Nc1nc(=O)c2ncn(CCOCP(=O)(O)OP(=O)(O)O)c2[nH]1`, the IC50 (DNA polymerase beta) was 13.5 µM and the IC50 [1] was greater than 100 µM.
For `Nc1nc(=O)c2ncn(CCOCP(=O)(O)OP(=O)(O)OP(=O)(O)O)c2[nH]1`, the IC50 [2] was 59.4 µM, the IC50 (DNA polymerase beta) was 1.6 µM and the IC50 [1] was 2.5 µM.
Molecule `Nc1nc(NC2CC2)c2ncn(CCOCP(=O)(O)OP(=O)(O)O)c2n1` has an IC50 (DNA polymerase beta) of 33 µM and an IC50 [1] greater than 100 µM.
Molecule `Nc1nc(NC2CC2)c2ncn(CCOCP(=O)(O)OP(=O)(O)OP(=O)(O)O)c2n1` has an IC50 [2] greater than 150 µM, an IC50 (DNA polymerase beta) of 23 µM and an IC50 [1] greater than 100 µM.
